{"source": "PubChem BioAssay AID2060326", "about": "(Molecular Pharmacology Branch, DTP, NCI, 2025)"}
{"tested_on": "MDA-MB-468 multi-cell spheroids, viability", "test": "Anticancer human tumor MDA-MB-468 cell line growth inhibition [IpAb];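 also: spheroids exposed to agents for seven days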;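 as to viability, T/C: 100% = DMSO vehicle control viability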", "settings": "curve of first compound; second compound 0.1 µM", "procedure,_shortened": "(§1)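 Multi-cell spheroids of 60% tumour cells, 25% HUVEC and 15% MSC in ultra-low-attachment U-bottom wells, treated with agents combined with ipatasertib or abemaciclib. Half-log ranges top out near clinical Cmax, or 10 microM when Cmax is unknown.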", "units": {"IC50": "nM"}}
{"smiles": "Cn1nccc1Nc1nccc(-c2ccn(C(CO)c3ccc(Cl)c(F)c3)c(=O)c2)n1", "note": "(centres undefined) + CC(C)NCC(C(=O)N1CCN(c2ncnc3c2C(C)CC3O)CC1)c1ccc(Cl)cc1", "IC50": 3290}
{"smiles": "C=CC(=O)N1CCN(c2nc(=O)n(-c3c(C)ccnc3C(C)C)c3nc(-c4c(O)cccc4F)c(F)cc23)C(C)C1", "note": "(centres undefined) + CCN1CCN(Cc2ccc(Nc3ncc(F)c(-c4cc(F)c5nc(C)n(C(C)C)c5c4)n3)nc2)CC1", "IC50": 6740}
{"smiles": "Cn1nccc1Nc1nccc(-c2ccn(C(CO)c3ccc(Cl)c(F)c3)c(=O)c2)n1", "note": "(centres undefined) + CCN1CCN(Cc2ccc(Nc3ncc(F)c(-c4cc(F)c5nc(C)n(C(C)C)c5c4)n3)nc2)CC1", "IC50": 3830}
{"smiles": "C=CCn1c(=O)c2cnc(Nc3ccc(N4CCN(C)CC4)cc3)nc2n1-c1cccc(C(C)(C)O)n1", "note": "+ CCN1CCN(Cc2ccc(Nc3ncc(F)c(-c4cc(F)c5nc(C)n(C(C)C)c5c4)n3)nc2)CC1", "IC50": 408}
{"tested_on": "MDA-MB-468 multi-cell spheroids, viability", "test": "Anticancer human tumor MDA-MB-468 cell line growth inhibition [IpAb];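 also: spheroids exposed to agents for seven days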;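 as to viability, T/C: 100% = DMSO vehicle control viability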", "settings": "curve of first compound; second compound 0.316 µM", "procedure,_shortened": "as §1", "units": {"IC50": "nM"}}
{"smiles": "Cn1ncc(Cl)c1-c1cc(C(=O)NC(CN)Cc2cccc(F)c2)sc1Cl", "note": "(centres undefined) + CC(C)NCC(C(=O)N1CCN(c2ncnc3c2C(C)CC3O)CC1)c1ccc(Cl)cc1", "IC50": 133}
{"smiles": "Cn1nccc1Nc1nccc(-c2ccn(C(CO)c3ccc(Cl)c(F)c3)c(=O)c2)n1", "note": "(centres undefined) + CC(C)NCC(C(=O)N1CCN(c2ncnc3c2C(C)CC3O)CC1)c1ccc(Cl)cc1", "IC50": 1350}
{"smiles": "C=CC(=O)N1CCN(c2nc(=O)n(-c3c(C)ccnc3C(C)C)c3nc(-c4c(O)cccc4F)c(F)cc23)C(C)C1", "note": "(centres undefined) + CCN1CCN(Cc2ccc(Nc3ncc(F)c(-c4cc(F)c5nc(C)n(C(C)C)c5c4)n3)nc2)CC1", "IC50": 6440}
{"smiles": "Cn1nccc1Nc1nccc(-c2ccn(C(CO)c3ccc(Cl)c(F)c3)c(=O)c2)n1", "note": "(centres undefined) + CCN1CCN(Cc2ccc(Nc3ncc(F)c(-c4cc(F)c5nc(C)n(C(C)C)c5c4)n3)nc2)CC1", "IC50": 4190}
{"smiles": "C=CCn1c(=O)c2cnc(Nc3ccc(N4CCN(C)CC4)cc3)nc2n1-c1cccc(C(C)(C)O)n1", "note": "+ CCN1CCN(Cc2ccc(Nc3ncc(F)c(-c4cc(F)c5nc(C)n(C(C)C)c5c4)n3)nc2)CC1", "IC50": 560}
{"tested_on": "MDA-MB-468 multi-cell spheroids, viability", "test": "Anticancer human tumor MDA-MB-468 cell line growth inhibition [IpAb];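 also: spheroids exposed to agents for seven days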;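 as to viability, T/C: 100% = DMSO vehicle control viability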", "settings": "curve of first compound; second compound 1 µM", "procedure,_shortened": "as §1", "units": {"IC50": "nM"}}
{"smiles": "Cn1ncc(Cl)c1-c1cc(C(=O)NC(CN)Cc2cccc(F)c2)sc1Cl", "note": "(centres undefined) + CC(C)NCC(C(=O)N1CCN(c2ncnc3c2C(C)CC3O)CC1)c1ccc(Cl)cc1", "IC50": 52.2}
{"smiles": "Cn1nccc1Nc1nccc(-c2ccn(C(CO)c3ccc(Cl)c(F)c3)c(=O)c2)n1", "note": "(centres undefined) + CC(C)NCC(C(=O)N1CCN(c2ncnc3c2C(C)CC3O)CC1)c1ccc(Cl)cc1", "IC50": 417}
{"smiles": "C=CC(=O)N1CCN(c2nc(=O)n(-c3c(C)ccnc3C(C)C)c3nc(-c4c(O)cccc4F)c(F)cc23)C(C)C1", "note": "(centres undefined) + CCN1CCN(Cc2ccc(Nc3ncc(F)c(-c4cc(F)c5nc(C)n(C(C)C)c5c4)n3)nc2)CC1", "IC50": 7150}
{"smiles": "Cn1nccc1Nc1nccc(-c2ccn(C(CO)c3ccc(Cl)c(F)c3)c(=O)c2)n1", "note": "(centres undefined) + CCN1CCN(Cc2ccc(Nc3ncc(F)c(-c4cc(F)c5nc(C)n(C(C)C)c5c4)n3)nc2)CC1", "IC50": 4420}
{"smiles": "C=CCn1c(=O)c2cnc(Nc3ccc(N4CCN(C)CC4)cc3)nc2n1-c1cccc(C(C)(C)O)n1", "note": "+ CCN1CCN(Cc2ccc(Nc3ncc(F)c(-c4cc(F)c5nc(C)n(C(C)C)c5c4)n3)nc2)CC1", "IC50": 417}
{"tested_on": "MDA-MB-468 multi-cell spheroids, viability", "test": "Anticancer human tumor MDA-MB-468 cell line growth inhibition [IpAb];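 also: spheroids exposed to agents for seven days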;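 as to viability, T/C: 100% = DMSO vehicle control viability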", "settings": "curve of first compound; second compound 3.16 µM", "procedure,_shortened": "as §1", "units": {"IC50": "nM"}}
{"smiles": "Cn1ncc(Cl)c1-c1cc(C(=O)NC(CN)Cc2cccc(F)c2)sc1Cl", "note": "(centres undefined) + CC(C)NCC(C(=O)N1CCN(c2ncnc3c2C(C)CC3O)CC1)c1ccc(Cl)cc1", "IC50": "< 31.6"}
{"smiles": "Cn1nccc1Nc1nccc(-c2ccn(C(CO)c3ccc(Cl)c(F)c3)c(=O)c2)n1", "note": "(centres undefined) + CC(C)NCC(C(=O)N1CCN(c2ncnc3c2C(C)CC3O)CC1)c1ccc(Cl)cc1", "IC50": "< 31.6"}
{"tested_on": "MDA-MB-468 multi-cell spheroids, viability", "test": "Anticancer human tumor MDA-MB-468 cell line growth inhibition [IpAb];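 also: spheroids exposed to agents for seven days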;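 as to viability, T/C: 100% = DMSO vehicle control viability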", "settings": "curve of first compound; second compound 10 µM", "procedure,_shortened": "as §1", "units": {"IC50": "nM"}}
{"smiles": "Cn1ncc(Cl)c1-c1cc(C(=O)NC(CN)Cc2cccc(F)c2)sc1Cl", "note": "(centres undefined) + CC(C)NCC(C(=O)N1CCN(c2ncnc3c2C(C)CC3O)CC1)c1ccc(Cl)cc1", "IC50": "< 31.6"}
{"smiles": "Cn1nccc1Nc1nccc(-c2ccn(C(CO)c3ccc(Cl)c(F)c3)c(=O)c2)n1", "note": "(centres undefined) + CC(C)NCC(C(=O)N1CCN(c2ncnc3c2C(C)CC3O)CC1)c1ccc(Cl)cc1", "IC50": "< 31.6"}
{"tested_on": "MDA-MB-468 multi-cell spheroids, viability", "test": "Anticancer human tumor MDA-MB-468 cell line growth inhibition [IpAb];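 also: spheroids exposed to agents for seven days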;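 as to viability, T/C: 100% = DMSO vehicle control viability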", "settings": "second compound 0.01 µM; first compound 0.0316 µM; stronger effect = lower value", "procedure,_shortened": "as §1", "units": {"viability, T/C": "%"}}
{"smiles": "C=CC(=O)N1CCN(c2nc(=O)n(-c3c(C)ccnc3C(C)C)c3nc(-c4c(O)cccc4F)c(F)cc23)C(C)C1", "note": "(centres undefined) + CCN1CCN(Cc2ccc(Nc3ncc(F)c(-c4cc(F)c5nc(C)n(C(C)C)c5c4)n3)nc2)CC1", "viability, T/C": 109}
{"smiles": "Cn1nccc1Nc1nccc(-c2ccn(C(CO)c3ccc(Cl)c(F)c3)c(=O)c2)n1", "note": "(centres undefined) + CCN1CCN(Cc2ccc(Nc3ncc(F)c(-c4cc(F)c5nc(C)n(C(C)C)c5c4)n3)nc2)CC1", "viability, T/C": 92}
{"smiles": "C=CCn1c(=O)c2cnc(Nc3ccc(N4CCN(C)CC4)cc3)nc2n1-c1cccc(C(C)(C)O)n1", "note": "+ CCN1CCN(Cc2ccc(Nc3ncc(F)c(-c4cc(F)c5nc(C)n(C(C)C)c5c4)n3)nc2)CC1", "viability, T/C": 108}
{"tested_on": "MDA-MB-468 multi-cell spheroids, viability", "test": "Anticancer human tumor MDA-MB-468 cell line growth inhibition [IpAb]", "settings": "second compound 0.01 µM; first compound 0.1 µM; stronger effect = lower value", "procedure,_shortened": "as §1", "units": {"viability, T/C": "%"}}
{"smiles": "C=CC(=O)N1CCN(c2nc(=O)n(-c3c(C)ccnc3C(C)C)c3nc(-c4c(O)cccc4F)c(F)cc23)C(C)C1", "note": "(centres undefined) + CCN1CCN(Cc2ccc(Nc3ncc(F)c(-c4cc(F)c5nc(C)n(C(C)C)c5c4)n3)nc2)CC1", "viability, T/C": 117}
{"smiles": "Cn1nccc1Nc1nccc(-c2ccn(C(CO)c3ccc(Cl)c(F)c3)c(=O)c2)n1", "note": "(centres undefined) + CCN1CCN(Cc2ccc(Nc3ncc(F)c(-c4cc(F)c5nc(C)n(C(C)C)c5c4)n3)nc2)CC1", "viability, T/C": 83}
{"smiles": "C=CCn1c(=O)c2cnc(Nc3ccc(N4CCN(C)CC4)cc3)nc2n1-c1cccc(C(C)(C)O)n1", "note": "+ CCN1CCN(Cc2ccc(Nc3ncc(F)c(-c4cc(F)c5nc(C)n(C(C)C)c5c4)n3)nc2)CC1", "viability, T/C": 75.5}
